System: 857933-349-R-J2-PDC complex spheroids, viability
Assay: Anticancer human tumor 857933-349-R-J2-PDC patient-derived colon adenocarcinoma cell line growth inhibition [GQUAD]
Settings: for IC50: curve of first compound; for viability, T/C: stronger effect = lower value
Procedure, shortened: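 Viability of tumor cells grown as complex spheroids with endothelial and stromal cells, exposed to drug combinations. Top concentration at or near clinical Cmax (else 10 microM), diluted in half-log increments.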

[1] = second compound 0.0316 µM, first compound 0.0316 µM
[2] = second compound 0.0316 µM, first compound 0.1 µM
[3] = second compound 0.0316 µM, first compound 0.316 µM
[4] = second compound 0.0316 µM, first compound 1 µM
[5] = second compound 0.0316 µM, first compound 3.16 µM
[6] = second compound 0.0316 µM, first compound 10 µM
[7] = second compound 0.1 µM, first compound 0.0316 µM
[8] = second compound 0.1 µM, first compound 0.1 µM
[9] = second compound 0.1 µM, first compound 0.316 µM
[10] = second compound 0.1 µM, first compound 1 µM
[11] = second compound 0.1 µM, first compound 3.16 µM
[12] = second compound 0.1 µM, first compound 10 µM
[13] = second compound 0.316 µM, first compound 0.0316 µM
[14] = second compound 0.316 µM, first compound 0.1 µM
[15] = second compound 0.316 µM, first compound 0.316 µM
[16] = second compound 0.316 µM, first compound 1 µM
[17] = second compound 0.316 µM, first compound 3.16 µM
[18] = second compound 0.316 µM, first compound 10 µM
[19] = second compound 1 µM, first compound 0.0316 µM
[20] = second compound 1 µM, first compound 0.1 µM
[21] = second compound 1 µM, first compound 0.316 µM
[22] = second compound 1 µM, first compound 1 µM
[23] = second compound 1 µM, first compound 3.16 µM
[24] = second compound 1 µM, first compound 10 µM
[25] = second compound 3.16 µM, first compound 0.0316 µM
[26] = second compound 3.16 µM, first compound 0.1 µM
[27] = second compound 3.16 µM, first compound 0.316 µM
[28] = second compound 3.16 µM, first compound 1 µM
[29] = second compound 3.16 µM, first compound 3.16 µM
[30] = second compound 3.16 µM, first compound 10 µM
[31] = second compound 10 µM, first compound 0.0316 µM
[32] = second compound 10 µM, first compound 0.1 µM
[33] = second compound 10 µM, first compound 0.316 µM
[34] = second compound 10 µM, first compound 1 µM
[35] = second compound 10 µM, first compound 3.16 µM
[36] = second compound 10 µM, first compound 10 µM
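Further: spheroids exposed to compounds for one week before readout.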
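Wherever viability, T/C is given: percent viability relative to vehicle DMSO wells taken as 100%.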

CC(=O)O[C@H]1C(=O)[C@@]2(C)[C@H]([C@H](OC(=O)c3ccccc3)[C@]3(O)C[C@H](OC(=O)[C@H](O)[C@@H](NC(=O)c4ccccc4)c4ccccc4)C(C)=C1C3(C)C)[C@]1(OC(C)=O)CO[C@@H]1C[C@@H]2O + CN(C)c1ccc(Nc2c3ccc(NC(=O)CCN4CCCC4)cc3nc3cc(NC(=O)CCN4CCCC4)ccc23)cc1
IC50 (second compound 0.0316 µM): 0.0663 µM | IC50 (second compound 0.1 µM): 0.0627 µM | IC50 (second compound 0.316 µM): 0.0621 µM | IC50 (second compound 1 µM): 0.0602 µM | IC50 (second compound 3.16 µM): 0.0551 µM | IC50 (second compound 10 µM): < 0.0316 µM | viability, T/C [1]: 75% | viability, T/C [2]: 36% | viability, T/C [3]: 22.3% | viability, T/C [4]: 23.4% | viability, T/C [5]: 23.6% | viability, T/C [6]: 27.1% | viability, T/C [7]: 75.5% | viability, T/C [8]: 33.7% | viability, T/C [9]: 22.2% | viability, T/C [10]: 23% | viability, T/C [11]: 22.6% | viability, T/C [12]: 26.4% | viability, T/C [13]: 70.9% | viability, T/C [14]: 35.2% | viability, T/C [15]: 19.6% | viability, T/C [16]: 20.5% | viability, T/C [17]: 24% | viability, T/C [18]: 27.2% | viability, T/C [19]: 71.6% | viability, T/C [20]: 33% | viability, T/C [21]: 22.1% | viability, T/C [22]: 21.3% | viability, T/C [23]: 26.2% | viability, T/C [24]: 26.8% | viability, T/C [25]: 67.4% | viability, T/C [26]: 31.6% | viability, T/C [27]: 26% | viability, T/C [28]: 24.5% | viability, T/C [29]: 27.2% | viability, T/C [30]: 30.9% | viability, T/C [31]: 54.9% | viability, T/C [32]: 43.9% | viability, T/C [33]: 38.6% | viability, T/C [34]: 33.4% | viability, T/C [35]: 34.3% | viability, T/C [36]: 41.4%

COc1cc(C2c3cc4c(cc3C(OC3OC5COC(C)OC5C(O)C3O)C3COC(=O)C23)OCO4)cc(OC)c1O (stereo not drawn) + CN(C)c1ccc(Nc2c3ccc(NC(=O)CCN4CCCC4)cc3nc3cc(NC(=O)CCN4CCCC4)ccc23)cc1
IC50 (second compound 0.0316 µM): 6.11 µM | IC50 (second compound 0.1 µM): 6.68 µM | IC50 (second compound 0.316 µM): 5.7 µM | IC50 (second compound 1 µM): 5.97 µM | IC50 (second compound 3.16 µM): 5.78 µM | IC50 (second compound 10 µM): 5.77 µM | viability, T/C [1]: 98.2% | viability, T/C [2]: 95.4% | viability, T/C [3]: 80.3% | viability, T/C [4]: 79.3% | viability, T/C [5]: 58.8% | viability, T/C [6]: 42.1% | viability, T/C [7]: 96.3% | viability, T/C [8]: 102% | viability, T/C [9]: 84.3% | viability, T/C [10]: 76.3% | viability, T/C [11]: 59.6% | viability, T/C [12]: 44.8% | viability, T/C [13]: 102% | viability, T/C [14]: 95.8% | viability, T/C [15]: 79.1% | viability, T/C [16]: 70.2% | viability, T/C [17]: 60.2% | viability, T/C [18]: 41.8% | viability, T/C [19]: 101% | viability, T/C [20]: 89.6% | viability, T/C [21]: 83.3% | viability, T/C [22]: 68.4% | viability, T/C [23]: 61.6% | viability, T/C [24]: 41.6% | viability, T/C [25]: 90.8% | viability, T/C [26]: 81.2% | viability, T/C [27]: 84.6% | viability, T/C [28]: 71.8% | viability, T/C [29]: 60.9% | viability, T/C [30]: 40.3% | viability, T/C [31]: 74.4% | viability, T/C [32]: 76.9% | viability, T/C [33]: 71% | viability, T/C [34]: 67% | viability, T/C [35]: 58.2% | viability, T/C [36]: 42.7%

Nc1ccn(C2OC(CO)C(O)C2(F)F)c(=O)n1 (stereo not drawn) + CN(C)c1ccc(Nc2c3ccc(NC(=O)CCN4CCCC4)cc3nc3cc(NC(=O)CCN4CCCC4)ccc23)cc1
IC50 (second compound 0.0316 µM): 0.366 µM | IC50 (second compound 0.1 µM): 0.383 µM | IC50 (second compound 0.316 µM): 0.357 µM | IC50 (second compound 1 µM): 0.379 µM | IC50 (second compound 3.16 µM): 0.497 µM | IC50 (second compound 10 µM): 0.639 µM | viability, T/C [1]: 99.8% | viability, T/C [2]: 78.5% | viability, T/C [3]: 56.7% | viability, T/C [4]: 26.6% | viability, T/C [5]: 15.5% | viability, T/C [6]: 16.1% | viability, T/C [7]: 98.8% | viability, T/C [8]: 81.3% | viability, T/C [9]: 58.3% | viability, T/C [10]: 22.9% | viability, T/C [11]: 15% | viability, T/C [12]: 15.7% | viability, T/C [13]: 98.5% | viability, T/C [14]: 81.3% | viability, T/C [15]: 57% | viability, T/C [16]: 18.1% | viability, T/C [17]: 14.6% | viability, T/C [18]: 15.6% | viability, T/C [19]: 97% | viability, T/C [20]: 77.3% | viability, T/C [21]: 60% | viability, T/C [22]: 19.4% | viability, T/C [23]: 16.6% | viability, T/C [24]: 14.5% | viability, T/C [25]: 83.2% | viability, T/C [26]: 75.9% | viability, T/C [27]: 65.2% | viability, T/C [28]: 27% | viability, T/C [29]: 18.3% | viability, T/C [30]: 16.5% | viability, T/C [31]: 73.8% | viability, T/C [32]: 73.4% | viability, T/C [33]: 60.7% | viability, T/C [34]: 43.8% | viability, T/C [35]: 24.3% | viability, T/C [36]: 21.8%

O=c1[nH]cc(F)c(=O)[nH]1 + CN(C)c1ccc(Nc2c3ccc(NC(=O)CCN4CCCC4)cc3nc3cc(NC(=O)CCN4CCCC4)ccc23)cc1
IC50 (second compound 0.0316 µM): 7.51 µM | IC50 (second compound 0.1 µM): 9.41 µM | IC50 (second compound 0.316 µM): 8.13 µM | IC50 (second compound 1 µM): 7.14 µM | IC50 (second compound 3.16 µM): 7.56 µM | IC50 (second compound 10 µM): 9.08 µM | viability, T/C [1]: 104% | viability, T/C [2]: 96.8% | viability, T/C [3]: 97% | viability, T/C [4]: 88.7% | viability, T/C [5]: 60.6% | viability, T/C [6]: 46.5% | viability, T/C [7]: 103% | viability, T/C [8]: 105% | viability, T/C [9]: 91.7% | viability, T/C [10]: 86.4% | viability, T/C [11]: 61.3% | viability, T/C [12]: 50% | viability, T/C [13]: 102% | viability, T/C [14]: 96.7% | viability, T/C [15]: 100% | viability, T/C [16]: 83.7% | viability, T/C [17]: 64.8% | viability, T/C [18]: 46.7% | viability, T/C [19]: 95.3% | viability, T/C [20]: 91.8% | viability, T/C [21]: 95.6% | viability, T/C [22]: 77.7% | viability, T/C [23]: 63.6% | viability, T/C [24]: 44.6% | viability, T/C [25]: 92.9% | viability, T/C [26]: 80% | viability, T/C [27]: 92.7% | viability, T/C [28]: 75.1% | viability, T/C [29]: 61.7% | viability, T/C [30]: 46.3% | viability, T/C [31]: 70.9% | viability, T/C [32]: 78.9% | viability, T/C [33]: 77.2% | viability, T/C [34]: 74.4% | viability, T/C [35]: 61.4% | viability, T/C [36]: 49%
